The supplement of paper PMC10307832

Experiments:
Test in all cases: relative viability (nuclei count vs DMSO), 5 days (fraction); higher = more cells survive
Sulindac + Tozasertib = compound: CC1=C(CC(=O)O)c2cc(F)ccc2/C1=C\c1ccc([S+](C)[O-])cc1 [Sulindac] + Cc1cc(Nc2cc(N3CCN(C)CC3)nc(Sc3ccc(NC(=O)C4CC4)cc3)n2)n[nH]1 [Tozasertib] (partner 0.1 µM)
Summary of the method: (§1)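 A single step with final 0.05% Triton X-100, 1% formaldehyde and 1 ug/ml Hoechst fixed the cells and stained nuclei 5 days after treatment. Lung cancer cell lines in 1536-well plates had been treated by pin tool the day after seeding with one drug alone or a fixed anchor-drug dose plus five library-drug doses (not always all listed) in √10 steps, and nuclei were counted on 4× images. Relative viability is the ratio of nuclei in treated wells to nuclei in vehicle wells, taken as the median of duplicate plates.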

[1] = compound: O=c1[nH]cc(F)c(=O)[nH]1 [5-Fluorouracil] + C[C@]1(O)C[C@@H](c2nc(-c3ccc4ccc(-c5ccccc5)nc4c3)c3c(N)nccn32)C1 [Linsitinib] (partner 1 µM)
Summary of the method: as §1

Staurosporine + OSI-027 = compound: CN[C@@H]1C[C@H]2O[C@@](C)([C@@H]1OC)n1c3ccccc3c3c4c(c5c6ccccc6n2c5c31)C(=O)NC4 [Staurosporine] + COc1cccc2cc(-c3nc([C@H]4CC[C@H](C(=O)O)CC4)n4ncnc(N)c34)[nH]c12 [OSI-027] (partner 0.5 µM)
Summary of the method: as §1

[2] = compound: O=c1[nH]cc(F)c(=O)[nH]1 [5-Fluorouracil] + Nc1ncn([C@H]2C[C@H](O)[C@@H](CO)O2)c(=O)n1 [Decitabine] (partner 2 µM)
Summary of the method: as §1

Cell Line	relative viability (Sulindac + Tozasertib; first compound 0.08 µM)	relative viability (Sulindac + Tozasertib; first compound 0.253 µM)	relative viability (Sulindac + Tozasertib; first compound 2.53 µM)	relative viability (Sulindac + Tozasertib; first compound 8 µM)	relative viability ([1]; first compound 0.02 µM)	relative viability ([1]; first compound 0.2 µM)	relative viability ([1]; first compound 0.6325 µM)	relative viability ([1]; first compound 2 µM)	relative viability (Staurosporine + OSI-027; first compound 0.005 µM)	relative viability (Staurosporine + OSI-027; first compound 0.01581 µM)	relative viability (Staurosporine + OSI-027; first compound 0.05 µM)	relative viability (Staurosporine + OSI-027; first compound 0.1581 µM)	relative viability (Staurosporine + OSI-027; first compound 0.5 µM)	relative viability ([2]; first compound 0.02 µM)	relative viability ([2]; first compound 0.2 µM)	relative viability ([2]; first compound 0.6325 µM)	relative viability ([2]; first compound 2 µM)	relative viability (Sulindac + Tozasertib; first compound 0.8 µM)
NCI-H2347	0.522	0.615	0.528	0.598	0.997	0.748	0.467	0.411	0.385	0.229	0.171	0.277	0.238	0.587	0.618	0.441	0.407	–
NCI-H1651	0.755	0.66	0.686	0.666	0.973	0.859	0.602	0.468	0.523	0.396	0.304	0.114	0.129	0.598	0.613	0.321	0.264	–
NCI-H1993	0.597	0.629	0.651	0.598	0.8	0.714	0.713	0.608	0.551	0.445	0.614	0.399	0.461	0.692	0.595	0.541	0.46	0.514
COR-L23	0.591	0.242	0.186	0.238	0.846	0.945	0.43	0.234	0.462	0.381	0.199	0.104	0.0775	0.452	0.449	0.412	0.254	0.179
HCC-44	1.08	1.04	0.938	0.981	0.613	0.57	0.451	0.272	0.358	0.131	0.212	0.174	0.136	1.07	0.96	0.94	0.77	–
LOU-NH91	0.634	0.662	0.636	0.744	0.921	0.889	0.646	0.415	0.767	0.571	0.487	0.344	0.213	0.873	0.874	0.838	0.534	0.636
NCI-H520	0.431	0.4	0.437	0.48	0.892	1.07	0.751	0.356	0.294	0.319	0.274	0.268	0.141	0.505	0.556	0.479	0.552	0.435
NCI-H661	0.351	0.336	0.362	0.38	0.466	0.731	0.654	0.522	0.641	0.413	0.346	0.201	0.166	0.574	0.596	0.495	0.551	0.362
NCI-H1975	0.888	0.825	0.722	1.15	0.902	1.02	0.489	0.308	0.573	0.144	0.187	–	0.0826	0.449	0.381	0.28	0.206	0.927
NCI-H1755	0.52	0.586	0.593	0.694	0.96	0.796	0.322	0.254	0.344	0.268	0.209	0.189	0.18	0.747	0.616	0.433	0.394	0.573
NCI-H2009	0.883	0.809	0.707	0.99	1.16	1.15	0.934	0.735	0.233	–	0.163	0.123	0.082	0.384	0.404	0.372	0.425	0.712
LK-2	0.186	0.178	–	0.189	0.767	0.5	0.584	0.334	0.256	0.158	0.244	0.151	0.111	0.328	0.341	0.334	0.269	–
HCC-78	0.445	0.476	0.42	0.367	0.398	0.528	0.258	–	0.361	0.37	0.308	0.336	0.296	0.711	0.726	0.427	0.327	0.403
NCI-H3122	0.4	0.469	0.352	0.466	1.09	0.799	0.415	0.223	1.25	–	0.857	0.155	0.0733	0.432	0.447	0.304	0.214	0.377
HOP-62	0.409	0.41	0.386	0.426	1.11	1.03	0.86	0.765	0.554	0.225	0.125	0.112	0.0933	0.247	0.211	0.256	0.246	–
NCI-H727	0.609	1.78	0.451	0.795	0.272	0.443	0.31	0.332	0.422	0.289	0.301	0.291	0.225	0.844	0.996	0.822	0.844	–
NCI-H358	0.112	0.0982	0.0899	0.102	0.704	0.883	0.867	0.483	0.809	0.157	0.0851	0.0615	0.0427	0.187	0.224	0.214	0.225	0.104
BEN	0.46	0.449	0.462	0.566	0.813	0.754	0.641	0.646	0.386	0.287	0.275	0.247	0.193	0.743	0.743	0.746	0.681	0.519
